From paper PMC9740939, “A Network-Pharmacology-Combined Integrated Pharmacokinetic Strategy to Investigate the Mechanism of Potential Liver Injury due to Polygonum multiflorum” (Molecules, 2022) come the findings set out here.

The nature of data set [1]: Pharmacokinetic study in rats after oral administration of PM extract (HPLC-QQQ-MS of plasma). Particulars: oral PM 18 g/kg; for half-life: n = 6, read-out: T1/2z (converted); for MRT last: read-out: MRT0–t; for MRT inf: read-out: MRT0–∞; for Vd/F: read-out: Vz/F. The format is in vivo, Sprague–Dawley (SD) rats. As to the method: Adult male Sprague–Dawley (SD) rats weighing between 180 g and 220 g were purchased from Beijing Vital River Laboratory Animal Technology Co., Ltd. (Beijing, China). The rats were kept in an animal center with air-conditioning and with a natural light–dark cycle (22 ± 1 °C and 40–50% humidity) with ad libitum access to standard food and water for a week before the experiment. All the animal procedures were in accordance with the Regulations of Experimental Animal Administration issued by the State Committee of Science and Technology of the People’s Republic of China. All the SD rats were fasted for 12 h prior to the experiment but with free access to water.
The assay was performed with an Agilent 1260 high-performance liquid chromatography system combined with Agilent 6470 QQQ MS (Agilent Technologies, CA, USA). Applied Masshunter Qualitative Analysis software (version B.07.00) and Quantitative Analysis software (version 07.00) were used for data acquisition and quantification. Analytes separation was achieved on a reversed-phase C18 column (Agilent Poroshell 120 EC-C18, 3.0 × 50 mm, 2.7 μm), which was protected by a guard column (Agilent EC-C18 3.0 × 5.0 mm, 2.7 μm). A gradient elution program composed of water (A) and acetonitrile (B) with gradient elution was used as follows: 0–1 min, 5% B; 1–3 min, 5–45% B; 3–7 min, 45–60% B; and 7–9 min, 60–95% B. The oven temperature was maintained at 40 °C. The flow rate was set at 0.6 mL/min (with a split ratio of 1:1.8), and the injection volume was 4 μL.
Agilent QQQ MS equipped with an electrospray ionization (ESI) source was used for mass spectrometric detection. MRM mode (negative) was used for performing the quantification of TSG, EG, PG, AE, and EM. The other MS conditions were set as follows: gas temperature, 300 °C, gas flow, 8 L/min; nebulizer, 55 psi; and sheath gas flow, 11 L/min.
A simple pretreatment method for protein precipitation was carried out to clean up the plasma samples prior to LC-MS/MS analysis. The plasma sample was thawed to room temperature. An aliquot of pre-cooled 800 μL of acetonitrile and 100 μL of IS solution (100 ng/mL) was added to a 300 μL plasma sample in a centrifuge tube. The tubes were vortexed for 10 min and spun in a centrifuge at 12,000 rpm for 15 min at 4 °C. The supernatant was transferred into a separate tube and dried using a vacuum concentrator, and the samples were re-dissolved with 100 μL of pure methanol. Next, the tube was vortexed for 10 min and spun in a centrifuge at 12,000 rpm for 15 min at 4 °C again. The supernatant was then injected into the HPLC-QQQ-MS instrument for analysis.
(§1) Blood samples were collected from the fundus into heparinized 1.5 mL polythene tubes at 5, 15, and 30 min and 1, 2, 4, 8, 12, and 24 h after oral administration of PM (18 g/kg). The blood samples were immediately centrifuged at 3500 rpm for 10 min to obtain plasma. Next, the plasma obtained was prepared for HPLC-QQQ-MS analysis, as described before. The TSG, EG, PG, AE, and EM concentrations in plasma versus time data for each rat were analyzed using Drug and Statistics Software (DAS version 3.2.8, Beijing University of Traditional Chinese Medicine, Beijing, China).

Data set [2] can be described thus: Integrated pharmacokinetics by AUC-based weighting approach. The class given is in vivo, Sprague–Dawley (SD) rats. The conditions noted are these: Wj = AUCj0–∞ / sum of AUC0–∞; rats, oral PM 18 g/kg. As to the method:
as §1
As mentioned before, the concentration–time curve (AUC0–∞) of each constituent was obtained using DAS, and then the integrated concentration was obtain using the following equations [46]: The weighting coefficient for each component was calculated using Equations (1) and (2). The integrated concentrations were then calculated by Equation (3). (1) Wj=AUCj0−∞/∑13AUC0−∞ (2) ∑13AUC0−∞=AUC0−∞1+AUC0−∞2+AUC0−∞3 (3) cT=W1×c1+W2×c2+W3×c3 where ω represents the weighting coefficient, “j” represents the three constituents studied, C1–C3 represent the plasma concentration of the three index components studied, and CT represents the integrated plasma concentration.

Data set [3] is described as follows: Stability of analytes in rat plasma (QC samples, storage and freeze–thaw). The class given is in vitro ADME. Particulars: for Stability in rat plasma (in words): 4 °C for 48 h, −80 °C for 10 days, three freeze–thaw cycles; for Stability Re (%), 4 °C, 48 h / Stability Re (%), −80 °C, 10 Days / Stability Re (%), Three Freeze–Thaw Cycles: rat plasma, n = 6; for Stability Re (%), Three Freeze–Thaw Cycles: −80 °C to 25 °C. The method, then:
Samples for bioanalytical method validation were prepared by spiking 100 μL of blank rat plasma and 100 μL of IS solution in bulk with different standard solutions to obtain appropriate concentrations for serial standard working solutions with the matrix and QC samples (TSG, PG, AE, and EM: 0.50 ng/mL (lower limit of quantitation, LLOQ), 10.0 ng/mL (low quality control, LQC), 200 ng/mL (medium quality control, MQC), and 640 ng/mL (high quality control, HQC); EG: 0.125 ng/mL (LLOQ), 2.50 ng/mL (LQC), 50.0 ng/mL (MQC), and 160 ng/mL (HQC)). All the stock solutions, working solutions, and samples were stored at −80 °C pending use.
Stability experiments were performed to evaluate the stability of the analytes in rat plasma at the LQC, MQC, and HQC under different time and temperature conditions. These included short-term stability (4 °C for 48 h), long-term stability (−80 °C for 10 days), and stability over three freeze–thaw cycles (−80 °C to 25 °C) by analyzing QC samples.

Where [4] appears, read: male, Sprague-Dawley, rat, plasma, po, 18 g/kg, n = 6.
Setting [5] is: male, Sprague-Dawley, rat, plasma, po, 18 g/kg.
Where [6] appears, read: male, Sprague-Dawley, rat plasma, n = 6.
The mark [7] stands for this setting: HQC: spiked 640 ng/mL (EG 160 ng/mL).
Where [8] appears, read: LQC: spiked 10.0 ng/mL (EG 2.50 ng/mL).
Setting [9] is: MQC: spiked 200 ng/mL (EG 50.0 ng/mL).
The mark [10] stands for this setting: male, Sprague-Dawley, rat plasma, n = 6, read-out: Tmax.

Read-outs that look alike come from different tables or passages of the source.

For `O=C1c2cccc(O)c2C(=O)c2c(O)cc(CO)cc21` [AE, aloe-emodin], the AUC(0-inf) (usually total exposure, with the tail of the curve extrapolated) in data set [1] (setting [4]) came to 70.3 ± 13.8 ng·h/mL. For the same molecule, the half-life in data set [1] (setting [5]) is 6.42 ± 2.17 h. In addition, in data set [1] (setting [6]), the exposure AUC(0-t) (as a rule, exposure summed from dosing to a finite time, without extrapolation to infinity) stood at 64.5 ± 9.4 ng·h/mL; the peak concentration (Cmax) (as a rule, the highest concentration seen after dosing) was 17.9 ± 2.94 ng/mL; the MRT last was found to be 6.5 ± 1.42 h; the MRT inf was 8.57 ± 3.02 h. Also, in data set [1] (setting [6]), the Vd/F is 407 ± 113 L/kg. Moreover, in data set [1] (rat plasma, n = 6), the CLz/F worked out at 756 ± 131 mL/min/kg and the time to peak (Tmax) (as a rule, the time from dosing to the highest level) worked out at 0.25 ± 0.00 h. In data set [2], the “Weighting coefficient (AUC0–∞ share)” value was 2.799%. The “Stability in rat plasma (in words)” value in data set [3] is on record as “stable”. In addition, in data set [3] (setting [7]), the “Stability Re (%), 4 °C, 48 h” value was determined as 90.21%; the “Stability Re (%), −80 °C, 10 Days” value is 100.1%; the “Stability Re (%), Three Freeze–Thaw Cycles” value came to 96.94%. In addition, in data set [3] (setting [8]), the “Stability Re (%), 4 °C, 48 h” value is on record as 94.77%; the “Stability Re (%), −80 °C, 10 Days” value was 90.27%; the “Stability Re (%), Three Freeze–Thaw Cycles” value amounted to 90.50%. In data set [3] (setting [9]), the “Stability Re (%), 4 °C, 48 h” value is reported as 97.05%; the “Stability Re (%), −80 °C, 10 Days” value is recorded as 89.62%; the “Stability Re (%), Three Freeze–Thaw Cycles” value was determined as 91.44%.
Take `Cc1cc(O)c2c(c1)C(=O)c1cc(O)cc(O)c1C2=O` [EM, emodin]: the area under the curve AUC(0-inf) in data set [1] (setting [4]) is 1020 ± 300 ng·h/mL. Also, in data set [1] (setting [5]), the half-life was 11.1 ± 5.22 h. In addition, in data set [1] (setting [6]), the AUC(0-t) came out at 1020 ± 142 ng·h/mL, the Cmax is 388 ± 32.1 ng/mL, the MRT last came to 6.82 ± 0.545 h and the Vd/F was 152 ± 51.5 L/kg. Further, in data set [1] (rat plasma, n = 6), the “AUC0–∞” value came to 1041 ± 300.2 ng·h/mL, the CLz/F is 171 ± 42.3 mL/min/kg, the “MRT0–∞” value is reported as 12.71 ± 5.092 h and the T1/2z came to 11.1 ± 5.22 h. Besides, the “Stability in rat plasma (in words)” value in data set [3] is recorded as “stable”. Moreover, in data set [3] (setting [7]), the “Stability Re (%), 4 °C, 48 h” value turned out to be 85.19%; the “Stability Re (%), −80 °C, 10 Days” value is listed as 111.7%; the “Stability Re (%), Three Freeze–Thaw Cycles” value amounted to 99.10%. For the same molecule, in data set [3] (setting [8]), the “Stability Re (%), 4 °C, 48 h” value was 86.36%; the “Stability Re (%), −80 °C, 10 Days” value is reported as 97.48%; the “Stability Re (%), Three Freeze–Thaw Cycles” value worked out at 96.37%. In data set [3] (setting [9]), the “Stability Re (%), 4 °C, 48 h” value was 92.05%; the “Stability Re (%), −80 °C, 10 Days” value came out at 99.40%; the “Stability Re (%), Three Freeze–Thaw Cycles” value came out at 98.71%.
With `COc1cc(O)c2c(c1)C(=O)c1cc(C)cc(OC3OC(CO)C(O)C(O)C3O)c1C2=O` [PG, physcion-8-O-β-D-glucoside], the half-life in data set [1] (setting [5]) is 12.3 ± 10.1 h. In data set [1] (setting [6]), the total exposure AUC(0-inf) was 205 ± 95.6 ng·h/mL, the exposure AUC(0-t) is 146 ± 19.4 ng·h/mL, the peak concentration (Cmax) was 20 ± 2.69 ng/mL and the MRT last worked out at 8.41 ± 1.01 h. In data set [1] (setting [6]), the MRT inf stood at 17.6 ± 13.9 h and the Vd/F is 242 ± 71.8 L/kg. Moreover, the time of peak concentration (Tmax) in data set [1] (setting [10]) was found to be 0.25 h. In data set [1] (rat plasma, n = 6), this molecule displayed a CLz/F of 290 ± 103 mL/min/kg and a T1/2z of 12.3 ± 10.1 h. In addition, the “Stability in rat plasma (in words)” value in data set [3] is on record as “stable”. Besides, in data set [3] (setting [7]), the “Stability Re (%), 4 °C, 48 h” value is given as 92.41%; the “Stability Re (%), −80 °C, 10 Days” value was determined as 96.88%; the “Stability Re (%), Three Freeze–Thaw Cycles” value stood at 98.03%. Besides, in data set [3] (setting [8]), the “Stability Re (%), 4 °C, 48 h” value is reported as 98.55%; the “Stability Re (%), −80 °C, 10 Days” value came to 90.14%; the “Stability Re (%), Three Freeze–Thaw Cycles” value is 88.21%. Besides, in data set [3] (setting [9]), the “Stability Re (%), 4 °C, 48 h” value is 90.36%; the “Stability Re (%), −80 °C, 10 Days” value stood at 94.69%; the “Stability Re (%), Three Freeze–Thaw Cycles” value amounted to 94.08%.
In the case of `OCC1OC(Oc2c(O)cc(O)cc2C=Cc2ccc(O)cc2)C(O)C(O)C1O` [TSG, trans-2,3,5,4′-tetrahydroxystilbene-2-O-β-D-glucoside], the half-life in data set [1] (setting [5]) was 2.22 ± 1.34 h. Besides, in data set [1] (setting [6]), the AUC(0-inf) stood at 758 ± 58.6 ng·h/mL, the AUC(0-t) came to 758 ± 58.9 ng·h/mL, the peak concentration (Cmax) was found to be 728 ± 104 ng/mL and the MRT last stood at 1.22 ± 0.182 h. In data set [1] (setting [6]), the MRT inf amounted to 1.23 ± 0.203 h and the Vd/F came to 2000 ± 1270 L/kg. The time of peak concentration (Tmax) in data set [1] (setting [10]) amounted to 0.25 h. In data set [1] (rat plasma, n = 6), this molecule gave a CLz/F of 10300 ± 769 mL/min/kg. Also, the “Weighting coefficient (AUC0–∞ share)” value in data set [2] is given as 30.19%. In data set [3], the “Stability in rat plasma (in words)” value is on record as “stable”. In addition, in data set [3] (setting [7]), the “Stability Re (%), 4 °C, 48 h” value is given as 97.86%; the “Stability Re (%), −80 °C, 10 Days” value is 92.72%; the “Stability Re (%), Three Freeze–Thaw Cycles” value is 99.01%. Further, in data set [3] (setting [8]), the “Stability Re (%), 4 °C, 48 h” value is reported as 100.1%; the “Stability Re (%), −80 °C, 10 Days” value is listed as 97.92%; the “Stability Re (%), Three Freeze–Thaw Cycles” value came to 91.38%. In data set [3] (setting [9]), the “Stability Re (%), 4 °C, 48 h” value worked out at 92.13%; the “Stability Re (%), −80 °C, 10 Days” value is 95.95%; the “Stability Re (%), Three Freeze–Thaw Cycles” value is 95.27%.
